Measured values: the NIST ThermoML archive (doi:10.1021/je201211f)

Experiments:
[1] = 298.15 K, 101.33 kPa, Liquid; for viscosity: Capillary tube (Ostwald / Ubbelohde) method; for mass density: Vibrating tube method
[2] = refractive index (Na D-line) (dimensionless); conditions: 298.15 K; 101.33 kPa; Liquid; Standard Abbe refractometry
[3] = xn = mol fraction of the nth substance listed; conditions: 101 kPa, Liquid; for mass density: Vibrating tube method; for viscosity: Capillary tube (Ostwald / Ubbelohde) method
[4] = refractive index (Na D-line) (dimensionless); xn = mol fraction of the nth substance listed; conditions: 298.15 K, 101 kPa, Liquid

Cc1ccccc1C [1,2-dimethylbenzene]
Conditions	mass density [kg/m3]	refractive index	viscosity [mPa·s]
[1]	875.57	–	0.757
[2]	–	1.5024	–

Cc1cccc(C)c1 [1,3-dimethylbenzene]
Conditions	mass density [kg/m3]	refractive index	viscosity [mPa·s]
[1]	859.88	–	0.589
[2]	–	1.4944	–

Cc1ccc(C)cc1 [1,4-dimethylbenzene]
Conditions	mass density [kg/m3]	refractive index	viscosity [mPa·s]
[1]	856.68	–	0.609
[2]	–	1.4929	–

CC(=O)O [acetic acid]
Conditions	mass density [kg/m3]	refractive index	viscosity [mPa·s]
[1]	1043.58	–	1.127
[2]	–	1.3698	–

ClC=C(Cl)Cl [trichloroethene]
Conditions	mass density [kg/m3]	refractive index	viscosity [mPa·s]
[1]	1455.53	–	0.582
[2]	–	1.475	–

ClC=C(Cl)Cl [trichloroethene] + Cc1ccccc1C
[3]
Conditions	mass density, 293.15 K [kg/m3]	mass density, 298.15 K [kg/m3]	mass density, 303.15 K [kg/m3]	viscosity, 298.15 K [mPa·s]
x1 = 0.0721	–	–	–	0.7421
x1 = 0.088	919.03	914.58	910.12	–
x1 = 0.1511	948.33	943.7	939.06	–
x1 = 0.1615	–	–	–	0.725
x1 = 0.2426	992.67	987.75	982.82	–
x1 = 0.2437	–	–	–	0.7095
x1 = 0.3181	–	–	–	0.6959
x1 = 0.3249	1034.35	1029.15	1023.95	–
x1 = 0.3895	1068.4	1062.98	1057.54	–
x1 = 0.3957	–	–	–	0.6808
x1 = 0.4775	1116.88	1111.15	1105.38	–
x1 = 0.4824	–	–	–	0.6644
x1 = 0.5495	1158.43	1152.41	1146.34	–
x1 = 0.558	–	–	–	0.6498
x1 = 0.6346	–	–	–	0.6363
x1 = 0.6384	1212.22	1205.79	1199.32	–
x1 = 0.7132	1259.66	1252.89	1246.08	–
x1 = 0.7158	–	–	–	0.6224
x1 = 0.79	1310.86	1303.68	1296.47	–
x1 = 0.802	–	–	–	0.6081
x1 = 0.8776	1372.25	1364.6	1356.92	–
x1 = 0.8818	–	–	–	0.595
x1 = 0.9559	–	–	–	0.5836
x1 = 0.9583	1431.95	1423.79	1415.62	–

[4]
Conditions	refractive index
x1 = 0.0721	1.501
x1 = 0.1615	1.499
x1 = 0.2437	1.4973
x1 = 0.3075	1.4958
x1 = 0.3957	1.4936
x1 = 0.4824	1.4917
x1 = 0.5643	1.4896
x1 = 0.6346	1.4875
x1 = 0.7158	1.4847
x1 = 0.806	1.4813
x1 = 0.8818	1.4788
x1 = 0.9637	1.4762
